Test results as given in patent US20090130707A1, “Methods of reducing the inhibitory effect of a redox active metal ion on the enzymatic hydrolysis of cellulosic material” (priority 2007, published 2009).

How the values were obtained:
[1] = tested on: Cellulolytic Enzyme Composition #1; experiment: mini-scale PCS hydrolysis by Cellulolytic Enzyme Composition #1; format: biochemical, Trichoderma reesei; conditions: PCS hydrolysis (FIGS. 23A-23D)
Description: (§1) The effect of various salts (FeSO4, FeCl2, NaCl, Na2SO4, MnSO4, MnCl2) was determined in the hydrolysis of PCS by Cellulolytic Enzyme Composition #2. The PCS hydrolysis was performed in duplicate in capped 1.7 ml EPPENDORF® tubes (“mini-scale”) containing 1 ml suspensions of 43.4 g of PCS (dry weight) per liter, 10 mM salts in 50 mM sodium acetate pH 5. Cellulolytic Enzyme Composition #2 was added at 0.25 g per liter. Reactions without the addition of the salt served as controls. The capped tubes were incubated at 50° C. in an INNOVA® 4080 incubator shaker (New Brunswick Scientific Co., Inc., Edison, N.J., USA) at 150 rpm.
Aliquots of the suspensions, sampled over time, were filtered by centrifugation using a 0.45 μm MULTISCREEN® HV membrane (Millipore, Billerica, Mass., USA) at 2000 rpm for 15 minutes using a SORVALL® RT7 centrifuge (Thermo Fisher Scientific, Waltham, Mass., USA). When not used immediately, the filtered sugary aliquots were frozen at −20° C. Sugar concentrations of the samples diluted in 0.005 M H2SO4 were measured after elution from a 4.6×250 mm AMINEX® HPX-87H column (Bio-Rad, Hercules, Calif., USA) by 0.005 M H2SO4 at a flow rate of 0.4 ml/minute at 65° C. with quantitation by integration of glucose and cellobiose using refractive index detection (CHEMSTATION®, AGILENT® 1100 HPLC, Agilent Technologies, Santa Clara, Calif., USA) calibrated with standards of glucose and cellobiose. The resultant equivalents were used to calculate the percentage of cellulose conversion for each reaction.
Example 30 was repeated with both Cellulolytic Enzyme Composition #1 and Cellulolytic Enzyme Composition #2. Soluble reducing sugars were measured by HPLC as described in Example 30. Reactions without the addition of FeSO4 served as controls.
The hydrolysis was performed in a series of duplicate “mini-scale” hydrolysis reactions according to the procedure described in Example 30.

[2] = tested on: Cellulolytic Enzyme Composition #1; experiment: mini-scale AVICEL hydrolysis by Cellulolytic Enzyme Composition #1; format: biochemical, Trichoderma reesei; conditions: 3 mM; 23 g AVICEL and 0.25 g enzyme per liter
Description: FIGS. 19A, 19B, 19C, and 19D show the effective inhibitory concentration range of Fe(II) on the hydrolysis of AVICEL® by Cellulolytic Enzyme Composition #1 (A and B) and on the hydrolysis of PASC by Cellulolytic Enzyme Composition #1 (C and D). The AVICEL® hydrolysis was conducted with […] of AVICEL® and 0.25 g of Cellulolytic Enzyme Composition #1 per liter of 50 mM sodium acetate pH 5 at 50° C. FeSO4 (mM): (∘) 0, (+) 1, (Δ) 3, (⋄) 5, (□) 10. Dixon plot linear regression line: 1/Rate=(0.035±0.003)[Fe(II)]+(0.043±0.015), r^2=0.978. Rate was estimated from the hydrolysis difference (%) at 24 and 6 hours. The PASC hydrolysis was conducted with 2 g of PASC and 50 mg of Cellulolytic Enzyme Composition #1 per liter of 50 mM sodium acetate pH 5 at 50° C. Dixon plot linear regression line: 1/Rate=(0.0042±0.0003)[Fe(II)]+(0.059±0.002), r^2=0.994. Rates were estimated from the hydrolysis difference (%) at 7 hours.
as §1
In one series of “mini-scale” hydrolysis reactions performed according to the procedure described in Example 30, the effect of 1 mM to 10 mM FeSO4 was evaluated in the hydrolysis of AVICEL® by Cellulolytic Enzyme Composition #1.

[3] = Hydrolysis of PCS stripped with chelator; format: biochemical; conditions: PCS (43 g per liter) stripped overnight with 10 mM chelator, then washed
Description: To test whether there was any significant amount of (accessible) Fe(II) in PCS, and whether stripping it with a chelator would improve PCS hydrolysis, washed PCS (43 g per liter) was “stripped” with 10 mM 2,2′-bipyridyl, 1,10-phenanthroline, or 1,7-phenanthroline. After overnight pre-incubation, the PCS was extensively washed to remove the chelator. The hydrolysis was performed in a series of duplicate “mini-scale” hydrolysis reactions performed according to the procedure described in Example 30.

## c1ccc(-c2ccccn2)nc1 [2,2′-bipyridyl]
[1]
  Effect of chelator on enzyme in the absence of FeSO4: significant inhibition
[2]
  Effect on AVICEL hydrolysis: No significant inhibition
[3]
  increase in hydrolysis extent: approximately 4%
